US12668584B2, “Heterocyclic compounds as kinase inhibitors for therapeutic uses” (National Health Research Institutes, priority 2019, dated 2026)

Columns and labels:
M-NFS-60 cells = assay: MTS cell viability assay, M-NFS-60; type: cell-based; conditions: 72 h, read-out: Cellular Proliferation Assay M-NFS-60 (nM) GI50
Experimental: (§1) Studies were conducted to evaluate […] anticancer activity of certain compounds described in EXAMPLE 1 using 3-(4,5-dimethylthiazol-2-yl)-5-(3-carboxymethoxyphenyl)-2-(4-sulfophenyl)-2H-tetrazolium) (MTS) cell viability assays. Results from these studies are shown in Table 2 below (see columns 3 and 4).
(§2) The cell lines M-NFS-60 (ATCC® CRL-1838™) and BaF3-CSF1R-1600 were obtained from American Type Culture Collection (ATCC, Manassas, VA, USA). The stable BaF3-CSF1R-1600 cell line expresses ETV6-CSF1R fusion protein consisting of N-terminal ETS-variant gene 6 protein (ETV6 residues M1-G337) and CSF1R tyrosine kinase (CSF1R residues L533-C972). The M-NSF-60 and BaF3-CSF1R-1600 cells were cultured in RPMI1640 medium supplemented with 10% fetal bovine serum, 0.05 mM 2-ME, 10 U/ml penicillin, and 10 µg/ml streptomycin at 37° C. and 5% CO2.
(§3) M-NFS-60 and BaF3-CSF1R-1600 cells were seeded in 96-well plates at a density of 10000 cells/100 μl and 8000 cells/100 μl per well, respectively, for 16 h and treated with vehicle or various concentrations of test compounds in medium for 72 h. Viable cells were quantified using the MTS method (Promega, Madison, WI, USA) according to manufacturer's recommended protocol. The results were determined by measuring absorbance at 490 nm using a plate reader (Victor 2). The GI50 value was defined as the amount of compound that caused 50% reduction in cell viability in comparison with DMSO-treated (vehicle) control and was calculated using Prism GraphPad Prism version 6 software (GraphPad).

[1] = test system: BaF3-CSF1R-1600 cells (express ETV6-CSF1R fusion protein); assay: MTS cell viability assay, BaF3-CSF1R-1600; type: cell-based; conditions: 72 h, read-out: Cellular Proliferation Assay BaF3-CSF1R GI50
Experimental: as §1, §2, §3

[2] = molecular target: T1, CSF1R kinase (recombinant N-terminal GST-CSF1R, residues L534-C972) (Homo sapiens, UniProt P07333); assay: CSF1R Kinase-Glo assay; type: biochemical; conditions: 40 μM ATP, 30° C. 180 min, read-out: Enzymatic Assay CSF1R enzyme IC50
T1 construct: Recombinant N-terminal GST-CSF1R (CSF1R residues L534-C972) containing the CSFIR kinase domain; made in house; host or cells: Sf9 insect cells
T1 sequence (P07333 534-972): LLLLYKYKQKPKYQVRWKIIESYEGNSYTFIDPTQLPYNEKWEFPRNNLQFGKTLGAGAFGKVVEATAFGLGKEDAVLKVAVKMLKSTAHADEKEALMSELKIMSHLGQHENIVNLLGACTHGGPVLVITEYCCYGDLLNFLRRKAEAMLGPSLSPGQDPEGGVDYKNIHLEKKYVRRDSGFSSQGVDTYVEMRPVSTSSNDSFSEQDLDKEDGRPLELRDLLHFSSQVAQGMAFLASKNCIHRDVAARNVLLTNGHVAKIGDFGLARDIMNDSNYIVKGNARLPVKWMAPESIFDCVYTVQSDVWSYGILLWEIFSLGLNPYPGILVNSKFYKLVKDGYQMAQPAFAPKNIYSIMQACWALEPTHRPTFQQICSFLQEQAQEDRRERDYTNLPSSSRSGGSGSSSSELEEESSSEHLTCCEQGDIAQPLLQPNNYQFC
Experimental: A study was conducted to test certain compounds described in EXAMPLE 1 in inhibiting CSF1R kinase activity.
Activity of CSF1R kinase was determined using a CSF1R Kinase-Glo assay. Recombinant N-terminal GST-CSF1R (CSF1R residues L534-C972) containing the CSFIR kinase domain was expressed in Sf9 insect cells and purified. The kinase assay was carried out in 96-well plates at 30° C. for 180 min with the tested compounds in a final volume of 50 μl including the following components: 25 mM Tris-HCl pH 7.4, 4 mM MnCl2, 10 mM MgCl2, 0.01% BSA, 0.5 mM NA3VO4, 0.02% Triton X-100, 40 μM ATP, 2 mM DTT and 20 μM poly(Glu,Tyr) 4:1 peptide, and 600 ng recombinant GST-CSF1R. Following incubation, 50 μl Kinase-Glo Plus Reagent (Promega, Madison, WI, USA) was added and the mixture was incubated at 25° C. for 20 min. A 70-μL aliquot of each reaction mixture was transferred to a black microtiter plate and luminescence was measured on Wallac Vector 1420 multilabel counter (PerkinElmer, Shelton, CT, USA). Percentage inhibition values were obtained by comparison of reaction rate with the rates in control wells (i.e., in the absence of test compound). IC50 values were calculated from a series of percentage inhibition values determined at a range of test compound concentrations using GraphPad Prism version 6 software (GraphPad, San Diego, CA, USA).

Work on `CN(C)c1ccc2c(Oc3ccc(NC(=O)Nc4ccccc4F)cc3)ncnc2c1` [Compound 14] yielded a GI50 (M-NFS-60 cells) of 100 to 1000 nM, a GI50 [1] of under 20 nM and an IC50 [2] of under 20 nM.
In the case of `O=C(NCc1ccc(C(F)(F)F)nc1)Nc1ccc(Oc2ncnc3cc(F)ccc23)cc1` [Compound 32], the GI50 (M-NFS-60 cells) is reported as over 1000 nM, the GI50 [1] is reported as 100 to 1000 nM and the IC50 [2] is reported as 20 to 100 nM.
`CN(C)c1ccc2c(Oc3ccc(NC(=O)NCc4ccc(C(F)(F)F)nc4)cc3Cl)ncnc2c1` [Compound 25] showed a GI50 (M-NFS-60 cells) of over 1000 nM, a GI50 [1] of 100 to 1000 nM and an IC50 [2] of 20 to 100 nM.
In the case of `COC1CCN(c2ccc3c(Oc4ccc(NC(=O)Nc5ccc(Cl)cc5)cc4)ncnc3c2)CC1` [Compound 20], the GI50 (M-NFS-60 cells) is reported as 20 to 100 nM, the GI50 [1] is reported as 20 to 100 nM and the IC50 [2] is reported as under 20 nM.
